# Patent US20210301349A1, “COMPOSITIONS AND METHODS FOR TREATING A TUMOR SUPPRESSOR DEFICIENT CANCER” (BETH ISRAEL DEACONESS MEDICAL CENTER, INC., priority 2016, published 2021)
# How the values were obtained:
# [1] = tested on: Pten^pc−/−; Zbtb7a^pc−/− tumors (anterior prostate lobes); assay: Histological analysis of treated Pten^pc−/−; Zbtb7a^pc−/− tumors; assay type: in vivo, mouse; settings: Zbtb7a^pc−/− mice, 10 days of i.p. treatment, versus vehicle or control IgG
# Description: (§1) Mice were allocated at random to experimental groups and studies were performed in an unblended manner. For treatment with the CXCR2 antagonist, SB225002 (Cayman Chemical #13336) was dissolved in DMSO (10 mg/ml) and diluted in vehicle (0.9% NaCl, 0.3% Tween 80) for in vivo administration. Mice (4 months of age) were treated daily for 10 days by intraperitoneal injection (5 mg/kg) and prostate tumor tissue (anterior lobes) was subjected to Flow Cytometry and histological analysis. For MRI analysis, mice (4 months of age) were treated daily for 21 days (Pten^pc−/−; Zbtb7a^pc−/−), for 14 days (Pten^pc−/−; Trp53^pc−/−) or for 14 days (Pten^pc−/−; Pml^pc−/−) by intraperitoneal injection (5 mg/kg). […] Tumor volume quantification was performed by using VivoQuant and Image J software. […]
# (§2) For western blotting, cell lysates were prepared by homogenizing tumor tissue with NP40 Buffer (Boston Bioproducts) supplemented with protease (Roche) and HALT phosphatase inhibitor cocktails (Thermo Scientific) and subsequently subjected to SDS-Gel separation (Invitrogen) and western blotting. […] Western blots were quantified using Image J software. […] Embedding and hematoxylin and eosin staining of sections were performed by the Histology Core at BIDMC and analyzed by a pathologist. […]
# NFκB signaling = assay: Western blot and expression analysis of Pten^pc−/−; Zbtb7a^pc−/− tumors treated with CXCR2 antagonist; assay type: in vivo, mouse; settings: versus vehicle
# Description: as §1, §2
compound,measurement,setting,value
O=C(Nc1ccc([N+](=O)[O-])cc1O)Nc1ccccc1Br [SB225002],tumor burden by histological analysis,[1],reduced tumor burden
same,tumor burden by histological analysis,[1]; listed as CXCR2 inhibitor,significantly diminished tumor involvement
same,expression of CXCL5,"NFκB signaling; Pten^pc−/−, Zbtb7a^pc−/− prostate tumors",elevated expression of CXCL5
same,IκBα protein level (normalized with β-actin),"NFκB signaling; western blot of Pten^pc−/−, Zbtb7a^pc−/− tumors",increased IκBα protein levels
